Laboratory results reported in ChEMBL document CHEMBL1137052 (Bioorg Med Chem Lett, 2004).

Legend:
[1] = Area under plasma concentration-time curve in rat upon oral/iv administration at 2 mg/kg; format: ADME, organism-based; parameters: dose 2 mg/kg; conditions: in vivo
[2] = molecular target: T1, Polyunsaturated fatty acid 5-lipoxygenase (Homo sapiens, UniProt P09917); experiment: Inhibition of 5-lipoxygenase activity in human whole blood assay; format: tissue-based
T1 sequence (P09917 whole entry): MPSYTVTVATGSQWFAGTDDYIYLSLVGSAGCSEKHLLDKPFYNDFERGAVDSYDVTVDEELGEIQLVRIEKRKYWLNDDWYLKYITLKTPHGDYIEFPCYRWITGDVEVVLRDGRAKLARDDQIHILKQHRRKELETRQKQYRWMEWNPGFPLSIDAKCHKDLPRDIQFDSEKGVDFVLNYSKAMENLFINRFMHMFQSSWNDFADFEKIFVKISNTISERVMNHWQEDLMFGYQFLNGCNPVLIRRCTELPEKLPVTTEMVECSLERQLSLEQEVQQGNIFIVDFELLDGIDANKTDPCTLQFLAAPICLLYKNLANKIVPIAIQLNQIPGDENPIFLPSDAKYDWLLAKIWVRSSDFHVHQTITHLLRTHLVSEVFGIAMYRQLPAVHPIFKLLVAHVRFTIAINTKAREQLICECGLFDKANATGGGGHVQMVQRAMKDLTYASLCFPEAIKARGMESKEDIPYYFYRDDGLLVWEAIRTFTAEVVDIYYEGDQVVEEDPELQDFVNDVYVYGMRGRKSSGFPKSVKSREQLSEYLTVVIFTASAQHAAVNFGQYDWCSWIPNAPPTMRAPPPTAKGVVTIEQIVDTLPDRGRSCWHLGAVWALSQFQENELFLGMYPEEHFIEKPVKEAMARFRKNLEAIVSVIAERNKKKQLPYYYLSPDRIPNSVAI

[3] = Metabolic clearance in rat liver microsomes; format: ADME, Microsome; conditions: read-out: Clearance
[4] = Metabolic clearance in human liver microsomes; format: ADME, Microsome; conditions: read-out: Clearance
[5] = Metabolic clearance in guinea pig liver microsomes; format: ADME, Cavia porcellus, Microsome; conditions: read-out: Clearance
[6] = Plasma concentration of compound in guinea pig after 3h of oral dose of 2 mg/kg; format: ADME, organism-based, Cavia porcellus; parameters: dose 2 mg/kg, route oral
[7] = Maximum plasma concentration in rat upon oral/iv administration at 2 mg/kg; format: ADME, organism-based; parameters: dose 2 mg/kg
[8] = Bioavailability in rat (dose 2 mg/kg p.o./i.v.); format: ADME, organism-based; conditions: in vivo, po
Cavia porcellus [9] = experiment: Percent inhibition of histamine-induced bronchoconstriction in guinea pig after 3h of oral dose of 2 mg/kg
Cavia porcellus [10] = experiment: Percent inhibition of calcium ionophore-induced LTB4 production in guinea pig after 3h of oral dose of 2 mg/kg
[11] = read-out: Concentration, in vivo

IC50 [2] | microsomal CLint [3] | microsomal CLint [4] | microsomal CLint [5] | SMILES | further results
185 nM | 101 µL/min/mg | 15 µL/min/mg | 105 µL/min/mg | NC(=O)N(O)CCC#Cc1ccc(OCCN2CCC(=C3c4ccc(Cl)cc4CCc4cccnc43)CC2)cc1 | AUC [1]: 83 ng·h/mL; concentration ([6]; in vivo): 72 ng/mL; concentration [6, 11]: 129 nM; Cmax [7]: 30 ng/mL; bioavailability [8]: 8%; inhibition in vivo at 2 mg/kg (Cavia porcellus [9]): 65%; inhibition in vivo at 2 mg/kg (Cavia porcellus [10]): 84%
194 nM |  |  |  | NC(=O)N(O)CCC#Cc1ccc(OCCCN2CCC(=C3c4ccc(Cl)cc4CCc4cccnc43)CC2)cc1 | 
48 nM |  |  |  | NC(=O)N(O)CCC#Cc1ccc(OCCN2CCN(C(c3ccc(F)cc3)c3ccc(F)cc3)CC2)cc1 | 
96 nM | 108 µL/min/mg |  | 99 µL/min/mg | NC(=O)N(O)CCC#Cc1ccc(OCCCN2CCN([C@H](c3ccccc3)c3ccc(Cl)cc3)CC2)cc1 | 
57 nM |  |  |  | NC(=O)N(O)CCC#Cc1ccc(OCCCCN2CCC(=C3c4ccc(Cl)cc4CCc4cccnc43)CC2)cc1 | 
89 nM | 138 µL/min/mg | 13 µL/min/mg | 111 µL/min/mg | NC(=O)N(O)CCC#Cc1ccc(OCCCCN2CCN(C(c3ccc(F)cc3)c3ccc(F)cc3)CC2)cc1 | 
213 nM | 48 µL/min/mg | 2 µL/min/mg | 19 µL/min/mg | NC(=O)N(O)CCC#Cc1ccc(OCCN2CCN([C@H](c3ccccc3)c3ccc(Cl)cc3)CC2)cc1 | AUC [1]: 300 ng·h/mL; concentration ([6]; in vivo): 187 ng/mL; concentration [6, 11]: 350 nM; Cmax [7]: 66 ng/mL; bioavailability [8]: 23%; inhibition in vivo at 2 mg/kg (Cavia porcellus [9]): 62%; inhibition in vivo at 2 mg/kg (Cavia porcellus [10]): 41%
90 nM |  |  |  | NC(=O)N(O)CCC#Cc1ccc(OCCCN2CCN(C(c3ccc(F)cc3)c3ccc(F)cc3)CC2)cc1 | 
68 nM |  |  |  | NC(=O)N(O)CCC#Cc1ccc(OCCCCN2CCN([C@H](c3ccccc3)c3ccc(Cl)cc3)CC2)cc1 | 
